Results as given in patent US9963464B2, “Macrocyclic compounds” (Bayer Pharma Aktiengesellschaft, priority 2014, dated 2018).
Like-named read-outs stand apart in the source and are kept apart here.

What was measured:
HeLa-MaTu-ADR cells = experiment: Proliferation assay HeLa-MaTu-ADR; type: cell-based, human; settings: 4 days, crystal violet, read-out: Inhibition of HeLa-MaTu-ADR cell proliferation IC50
Description: Cultivated tumour cells (HeLa, human cervical tumour cells, ATCC CCL-2; NCI-H460, human non-small cell lung carcinoma cells, ATCC HTB-177; A2780, human ovarian carcinoma cells, ECACC #93112519; DU 145, hormone-independent human prostate carcinoma cells, ATCC HTB-81; HeLa-MaTu-ADR, multidrug-resistant human cervical carcinoma cells, EPO-GmbH Berlin; Caco-2, human colorectal carcinoma cells, ATCC HTB-37; B16F10, mouse melanoma cells, ATCC CRL-6475) were plated at a density of 5,000 cells/well (DU145, HeLa-MaTu-ADR), 3,000 cells/well (NCI-H460, HeLa), 2,500 cells/well (A2780), 1,500 cells/well (Caco-2), or 1,000 cells/well (B16F10) in a 96-well multititer plate in 200 μL of their respective growth medium supplemented 10% fetal calf serum. After 24 hours, the cells of one plate (zero-point plate) were stained with crystal violet (see below), while the medium of the other plates was replaced by fresh culture medium (200 μl), to which the test substances were added in various concentrations (0 μM, as well as in the range of 0.001-10 μM). The cells were incubated for 4 days in the presence of test substances. Cell proliferation was determined by staining the cells with crystal violet: the cells were fixed by adding 20 μl/measuring point of an 11% glutaric aldehyde solution for 15 minutes at room temperature. After three washing cycles of the fixed cells with water, the plates were dried at room temperature. The cells were stained by adding 100 μl/measuring point of a 0.1% crystal violet solution (pH 3.0). After three washing cycles of the stained cells with water, the plates were dried at room temperature. The dye was dissolved by adding 100 μl/measuring point of a 10% acetic acid solution. The extinction was determined by photometry at a wavelength of 595 nm. The change of cell number, in percent, was calculated by normalization of the measured values to the extinction values of the zero-point plate (=0%) and the extinction of the untreated (0 μm) cells (=100%). The IC50 values (inhibitory concentration at 50% of maximal effect) were determined by means of a 4 parameter fit. Non-adherent MOLM-13 human acute myeloid leukemia cells (DSMZ ACC 554) were seeded at a density of 5,000 cells/well in a 96-well multititer plate in 100 μL of growth medium supplemented 10% fetal calf serum. After 24 hours, cell viability of one plate (zero-point plate) was determined with the Cell Titre-Glo Luminescent Cell Viability Assay (Promega), while 50 μL of test compound containing medium was added to the wells of the other plates (final concentrations in the range of 0.001-1 μM and DMSO controls). Cell viability was assessed after 72-hour exposure with the Cell Titre-Glo Luminescent Cell Viability Assay (Promega). IC50 values (inhibitory concentration at 50% of maximal effect) were determined by means of a 4 parameter fit on measurement data which were normalized to vehicle (DMSO) treated cells (=100%) and measurement readings taken immediately before compound exposure (=0%).

CDK2/CycE = target: T1, CDK2/CycE (Homo sapiens, UniProt P24941); experiment: CDK2/CycE kinase assay (TR-FRET, Method 2a); type: biochemical; settings: 10 μM ATP
T1 construct: GST; purchased ProQinase GmbH (Freiburg, Germany); host or cells: insect cells (Sf9)
Description: 2a. CDK2/CycE Kinase Assay:
CDK2/CycE-inhibitory activity of compounds of the present invention was quantified employing the CDK2/CycE TR-FRET assay as described in the following paragraphs:
Recombinant fusion proteins of GST and human CDK2 and of GST and human CycE, expressed in insect cells (Sf9) and purified by Glutathion-Sepharose affinity chromatography, were purchased from ProQinase GmbH (Freiburg, Germany). As substrate for the kinase reaction biotinylated peptide biotin-Ttds-YISPLKSPYKISEG (C-terminus in amid form) was used which can be purchased e.g. from the company JERINI Peptide Technologies (Berlin, Germany).
For the assay 50 nl of a 100 fold concentrated solution of the test compound in DMSO was pipetted into a black low volume 384 well microtiter plate (Greiner Bio-One, Frickenhausen, Germany), 2 μl of a solution of CDK2/CycE in aqueous assay buffer [50 mM Tris/HCl pH 8.0, 10 mM MgCl2, 1.0 mM dithiothreitol, 0.1 mM sodium ortho-vanadate, 0.01% (v/v) Nonidet-P40 (Sigma)] were added and the mixture was incubated for 15 min at 22° C. to allow pre-binding of the test compounds to the enzyme before the start of the kinase reaction. […] The concentration of CDK2/CycE was adjusted depending of the activity of the enzyme lot and was chosen appropriate to have the assay in the linear range, typical concentrations were in the range of 130 ng/mL. The reaction was stopped by the addition of 5 μl of a solution of TR-FRET detection reagents (0.2 μM streptavidine-XL665 [Cisbio Bioassays, Codolet, France] and 1 nM anti-RB(pSer807/pSer811)-antibody from BD Pharmingen [#558389] and 1.2 nM LANCE EU-W1024 labeled anti-mouse IgG antibody [Perkin-Elmer, product no. AD0077]) in an aqueous EDTA-solution (100 mM EDTA, 0.2% (w/v) bovine serum albumin in 100 mM HEPES pH 7.5).
The resulting mixture was incubated 1 h at 22° C. to allow the formation of complex between the phosphorylated biotinylated peptide and the detection reagents. Subsequently the amount of phosphorylated substrate was evaluated by measurement of the resonance energy transfer from the Eu-chelate to the streptavidine-XL. Therefore, the fluorescence emissions at 620 nm and 665 nm after excitation at 350 nm was measured in a TR-FRET reader, e.g. a Rubystar (BMG Labtechnologies, Offenburg, Germany) or a Viewlux (Perkin-Elmer). The ratio of the emissions at 665 nm and at […] was taken as the measure for the amount of phosphorylated substrate. The data were normalised (enzyme reaction without inhibitor=0% inhibition, all other assay components but no enzyme=100% inhibition).

IC50 (HeLa-MaTu-ADR cells; Homo sapiens, 96 h) | IC50 (CDK2/CycE) | IC50 (HeLa-MaTu-ADR cells; trifluoroacetate) | SMILES
30 nM | 11.7 nM |  | CCOC(=O)N=S(C)(=O)Cc1cc2nc(c1)OCCCOc1cc(F)ccc1-c1cc(ncc1F)N2 (racemic) [Example 20, (rac)-ethyl [{[15,19-difluoro-3,4-dihydro-2H,11H-10,6-(azeno)-12,16-(metheno)-1,5,11,13-benzodioxadiazacyclooctadecin-8-yl]methyl}(methyl)oxido-λ^6-sulfanylidene]carbamate]
20 nM | 19.3 nM |  | CS(=O)(=O)N=S(C)(=O)Cc1cc2nc(c1)OCCCOc1cc(F)ccc1-c1cc(ncc1F)N2 (racemic) [Example 22, (rac)-N-[{[15,19-difluoro-3,4-dihydro-2H,11H-10,6-(azeno)-12,16-(metheno)-1,5,11,13-benzodioxadiazacyclooctadecin-8-yl]methyl}(methyl)oxido-λ^6-sulfanylidene]methanesulfonamide]
9 nM | 5 nM |  | CS(=O)(=O)Cc1cc2nc(c1)OCCCOc1cc(F)ccc1-c1cc(ncc1F)N2 [Example 8, 15,19-difluoro-8-[(methylsulfonyl)methyl]-3,4-dihydro-2H,11H-10,6-(azeno)-12,16-(metheno)-1,5,11,13-benzodioxadiazacyclooctadecine]
31 nM | 16.7 nM |  | C[S+]([O-])Cc1cc2nc(c1)OCCCCOc1cc(F)ccc1-c1cc(ncc1F)N2 (racemic) [Example 13, (rac)-16,20-difluoro-9-[(methylsulfinyl)methyl]-2,3,4,5-tetrahydro-12H-11,7-(azeno)-13,17-(metheno)-1,6,12,14-benzodioxadiazacyclononadecine]
10 nM | 4.6 nM |  | C[S+]([O-])Cc1cc2nc(c1)OCCCOc1cc(F)ccc1-c1cc(ncc1F)N2 (racemic) [Example 4, (rac)-15,19-Difluoro-8-[(methylsulfinyl)methyl]-3,4-dihydro-2H,11H-10,6-(azeno)-12,16-(metheno)-1,5,11,13-benzodioxadiazacyclooctadecine]
10 nM | 8.2 nM |  | CC(=O)N=S(C)(=O)Cc1cc2nc(c1)OCCCOc1cc(F)ccc1-c1cc(ncc1F)N2 (racemic) [Example 18, (rac)-N-[{[15,19-difluoro-3,4-dihydro-2H,11H-10,6-(azeno)-12,16-(metheno)-1,5,11,13-benzodioxadiazacyclooctadecin-8-yl]methyl}(methyl)oxido-λ^6-sulfanylidene]acetamide]
15 nM | 11.6 nM |  | CS(=O)(Cc1cc2nc(c1)OCCCOc1cc(F)ccc1-c1cc(ncc1F)N2)=NC(=O)OCCCl (racemic) [Example 21, (rac)-2-chloroethyl [{[15,19-difluoro-3,4-dihydro-2H,11H-10,6-(azeno)-12,16-(metheno)-1,5,11,13-benzodioxadiazacyclooctadecin-8-yl]methyl}(methyl)oxido-λ^6-sulfanylidene]carbamate]
 | 13.5 nM | 210 nM | CS(=O)(Cc1cc2nc(c1)OCCCOc1cc(F)ccc1-c1cc(ncc1F)N2)=NS(=O)(=O)CCN.O=C(O)C(F)(F)F (racemic) [Example 24, (rac)-2-{[{[15,19-difluoro-3,4-dihydro-2H,11H-10,6-(azeno)-12,16-(metheno)-1,5,11,13-benzodioxadiazacyclooctadecin-8-yl]methyl}(methyl)oxido-λ^6-sulfanylidene]sulfamoyl}ethanaminium trifluoroacetate]
396 nM | 30.2 nM |  | CS(=O)(Cc1cc2nc(c1)OCCCOc1cc(F)ccc1-c1cc(ncc1F)N2)=NS(=O)(=O)CCN (racemic) [Example 23, (rac)-2-amino-N-[{[15,19-difluoro-3,4-dihydro-2H,11H-10,6-(azeno)-12,16-(metheno)-1,5,11,13-benzodioxadiazacyclooctadecin-8-yl]methyl}(methyl)oxido-λ^6-sulfanylidene]ethanesulfonamide]
38 nM | 15.4 nM |  | CN=S(C)(=O)Cc1cc2nc(c1)OCCCOc1cc(F)ccc1-c1cc(ncc1F)N2 (racemic) [Example 19, (rac)-8-[(N,S-dimethylsulfonimidoyl)methyl]-15,19-difluoro-3,4-dihydro-2H,11H-10,6-(azeno)-12,16-(metheno)-1,5,11,13-benzodioxadiazacyclooctadecine]
 | 21.2 nM |  | CS(=N)(=O)Cc1cc2cc(c1)OCCCCOc1cc(F)ccc1-c1nc(ncc1F)N2 (racemic) [Example 1, (rac)-16,20-Difluoro-9-[(S-methylsulfonimidoyl)methyl]-2,3,4,5-tetrahydro-12H-13,17-(azeno)-11,7-(metheno)-1,6,12,14-benzodioxadiazacyclononadecine]
298 nM | 10 nM |  | NCCS(=O)(=O)Cc1cc2nc(c1)OCCCOc1cc(F)ccc1-c1cc(ncc1F)N2 [Example 26, 2-({[15,19-difluoro-3,4-dihydro-2H,11H-10,6-(azeno)-12,16-(metheno)-1,5,11,13-benzodioxadiazacyclooctadecin-8-yl]methyl}sulfonyl)ethanamine]
20 nM | 19.8 nM |  | CS(=N)(=O)Cc1cc2nc(c1)OCCCCOc1cc(F)ccc1-c1cc(ncc1F)N2 (racemic) [Example 14, (rac)-16,20-difluoro-9-[(S-methylsulfonimidoyl)methyl]-2,3,4,5-tetrahydro-12H-11,7-(azeno)-13,17-(metheno)-1,6,12,14-benzodioxadiazacyclononadecine]
 | 2 nM |  | CS(=N)(=O)Cc1cc2nc(c1)OCCCOc1cc(F)ccc1-c1cc(ncc1F)N2 (racemic) [Example 5, (rac)-15,19-Difluoro-8-[(S-methylsulfonimidoyl)methyl]-3,4-dihydro-2H,11H-10,6-(azeno)-12,16-(metheno)-1,5,11,13-benzodioxadiazacyclooctadecine]
 | 18200 nM |  | CSCc1cc2nc(c1)OCCOc1cc(F)ccc1-c1cc(ncc1F)N2 [Example 9, 14,18-Difluoro-7-[(methylsulfanyl)methyl]-2,3-dihydro-10H-9,5-(azeno)-11,15-(metheno)-1,4,10,12-benzodioxadiazacycloheptadecine]
